From the CheMixHub viscosity set
± gives the uncertainty stated by the source.

Test: xn = mol fraction of the nth substance listed

In the case of `COc1ccccc1N` + ClC(Cl)C(Cl)Cl, the viscosity (303.15 K, 100 kPa, x1 = 0.0911) is reported as 1.786 ± 0.056 mPa·s, the viscosity (303.15 K, 100 kPa, x1 = 0.1962) is reported as 2.165 ± 0.067 mPa·s and the viscosity (303.15 K, 100 kPa, x1 = 0.2806) is reported as 2.464 ± 0.077 mPa·s. The viscosity (303.15 K, 100 kPa, x1 = 0.3816) was 2.82 ± 0.088 mPa·s, the viscosity (303.15 K, 100 kPa, x1 = 0.4976) was 3.224 ± 0.1 mPa·s and the viscosity (303.15 K, 100 kPa, x1 = 0.6023) was 3.584 ± 0.11 mPa·s. For the same compound, the viscosity (303.15 K, 100 kPa, x1 = 0.7116) was 3.957 ± 0.12 mPa·s, the viscosity (303.15 K, 100 kPa, x1 = 0.8104) was 4.291 ± 0.13 mPa·s and the viscosity (303.15 K, 100 kPa, x1 = 0.9212) was 4.66 ± 0.14 mPa·s. For the same compound, the viscosity (308.15 K, 100 kPa, x1 = 0.0911) was 1.673 ± 0.052 mPa·s, the viscosity (308.15 K, 100 kPa, x1 = 0.1962) was 2.029 ± 0.063 mPa·s and the viscosity (308.15 K, 100 kPa, x1 = 0.2806) was 2.309 ± 0.072 mPa·s. It also gave a viscosity (308.15 K, 100 kPa, x1 = 0.3816) of 2.639 ± 0.082 mPa·s, a viscosity (308.15 K, 100 kPa, x1 = 0.4976) of 3.013 ± 0.093 mPa·s and a viscosity (308.15 K, 100 kPa, x1 = 0.6023) of 3.347 ± 0.1 mPa·s. For the same compound, the viscosity (308.15 K, 100 kPa, x1 = 0.7116) was 3.692 ± 0.11 mPa·s, the viscosity (308.15 K, 100 kPa, x1 = 0.8104) was 4.001 ± 0.12 mPa·s and the viscosity (308.15 K, 100 kPa, x1 = 0.9212) was 4.337 ± 0.13 mPa·s. For the same compound, the viscosity (313.15 K, 100 kPa, x1 = 0.0911) was 1.562 ± 0.049 mPa·s, the viscosity (313.15 K, 100 kPa, x1 = 0.1962) was 1.895 ± 0.059 mPa·s and the viscosity (313.15 K, 100 kPa, x1 = 0.2806) was 2.154 ± 0.067 mPa·s. The viscosity (313.15 K, 100 kPa, x1 = 0.3816) was 2.458 ± 0.076 mPa·s, the viscosity (313.15 K, 100 kPa, x1 = 0.4976) was 2.802 ± 0.087 mPa·s and the viscosity (313.15 K, 100 kPa, x1 = 0.6023) was 3.111 ± 0.096 mPa·s. It also gave a viscosity (313.15 K, 100 kPa, x1 = 0.7116) of 3.427 ± 0.11 mPa·s, a viscosity (313.15 K, 100 kPa, x1 = 0.8104) of 3.709 ± 0.12 mPa·s and a viscosity (313.15 K, 100 kPa, x1 = 0.9212) of 4.012 ± 0.12 mPa·s.
Work on `COc1ccccc1N` + COCCO yielded a viscosity (303.15 K, 101 kPa, x1 = 0.0724) of 2.225 ± 0.041 mPa·s, a viscosity (303.15 K, 101 kPa, x1 = 0.1494) of 2.507 ± 0.046 mPa·s and a viscosity (303.15 K, 101 kPa, x1 = 0.2314) of 2.808 ± 0.051 mPa·s. It also gave a viscosity (303.15 K, 101 kPa, x1 = 0.319) of 3.132 ± 0.057 mPa·s, a viscosity (303.15 K, 101 kPa, x1 = 0.4127) of 3.478 ± 0.063 mPa·s and a viscosity (303.15 K, 101 kPa, x1 = 0.5131) of 3.794 ± 0.069 mPa·s. For the same compound, the viscosity (303.15 K, 101 kPa, x1 = 0.6211) was 4.083 ± 0.074 mPa·s, the viscosity (303.15 K, 101 kPa, x1 = 0.7376) was 4.343 ± 0.079 mPa·s and the viscosity (303.15 K, 101 kPa, x1 = 0.8635) was 4.614 ± 0.084 mPa·s.
Work on `COC(C)=O` + CCCO yielded a viscosity (298.15 K, 101 kPa, x1 = 0.0464) of 1.587 ± 0.014 mPa·s, a viscosity (298.15 K, 101 kPa, x1 = 0.0999) of 1.295 ± 0.012 mPa·s and a viscosity (298.15 K, 101 kPa, x1 = 0.1992) of 1.001 ± 0.009 mPa·s. For the same compound, the viscosity (298.15 K, 101 kPa, x1 = 0.3035) was 0.794 ± 0.008 mPa·s, the viscosity (298.15 K, 101 kPa, x1 = 0.4028) was 0.654 ± 0.006 mPa·s and the viscosity (298.15 K, 101 kPa, x1 = 0.5088) was 0.555 ± 0.006 mPa·s. The viscosity (298.15 K, 101 kPa, x1 = 0.5545) was 0.52 ± 0.005 mPa·s, the viscosity (298.15 K, 101 kPa, x1 = 0.6022) was 0.49 ± 0.005 mPa·s and the viscosity (298.15 K, 101 kPa, x1 = 0.7037) was 0.439 ± 0.005 mPa·s. The viscosity (298.15 K, 101 kPa, x1 = 0.7973) was 0.401 ± 0.004 mPa·s, the viscosity (298.15 K, 101 kPa, x1 = 0.8988) was 0.39 ± 0.004 mPa·s and the viscosity (298.15 K, 101 kPa, x1 = 0.9458) was 0.379 ± 0.004 mPa·s. For the same compound, the viscosity (298.15 K, 101 kPa, x2 = 0.1056) was 0.375 ± 0.006 mPa·s, the viscosity (298.15 K, 101 kPa, x2 = 0.1987) was 0.399 ± 0.006 mPa·s and the viscosity (298.15 K, 101 kPa, x2 = 0.298) was 0.432 ± 0.006 mPa·s. For the same compound, the viscosity (298.15 K, 101 kPa, x2 = 0.3999) was 0.483 ± 0.006 mPa·s, the viscosity (298.15 K, 101 kPa, x2 = 0.5012) was 0.55 ± 0.007 mPa·s and the viscosity (298.15 K, 101 kPa, x2 = 0.5963) was 0.644 ± 0.007 mPa·s. The viscosity (298.15 K, 101 kPa, x2 = 0.6991) was 0.793 ± 0.008 mPa·s, the viscosity (298.15 K, 101 kPa, x2 = 0.7989) was 1.014 ± 0.009 mPa·s and the viscosity (298.15 K, 101 kPa, x2 = 0.8845) was 1.306 ± 0.011 mPa·s. The viscosity (298.15 K, 101.33 kPa, x1 = 0.0504) was 1.667 ± 0.055 mPa·s, the viscosity (298.15 K, 101.33 kPa, x1 = 0.1935) was 1.074 ± 0.036 mPa·s and the viscosity (298.15 K, 101.33 kPa, x1 = 0.3023) was 0.817 ± 0.028 mPa·s. It also gave a viscosity (298.15 K, 101.33 kPa, x1 = 0.4167) of 0.654 ± 0.023 mPa·s, a viscosity (298.15 K, 101.33 kPa, x1 = 0.5497) of 0.544 ± 0.02 mPa·s and a viscosity (298.15 K, 101.33 kPa, x1 = 0.6021) of 0.509 ± 0.019 mPa·s. For the same compound, the viscosity (298.15 K, 101.33 kPa, x1 = 0.6703) was 0.48 ± 0.018 mPa·s, the viscosity (298.15 K, 101.33 kPa, x1 = 0.7809) was 0.439 ± 0.017 mPa·s and the viscosity (298.15 K, 101.33 kPa, x1 = 0.8648) was 0.409 ± 0.016 mPa·s. It also gave a viscosity (313.15 K, 101 kPa, x1 = 0.0464) of 1.153 ± 0.011 mPa·s, a viscosity (313.15 K, 101 kPa, x1 = 0.0999) of 0.965 ± 0.009 mPa·s and a viscosity (313.15 K, 101 kPa, x1 = 0.1992) of 0.769 ± 0.007 mPa·s. It also gave a viscosity (313.15 K, 101 kPa, x1 = 0.3035) of 0.626 ± 0.006 mPa·s, a viscosity (313.15 K, 101 kPa, x1 = 0.4028) of 0.529 ± 0.005 mPa·s and a viscosity (313.15 K, 101 kPa, x1 = 0.5088) of 0.458 ± 0.005 mPa·s. The viscosity (313.15 K, 101 kPa, x1 = 0.5545) was 0.433 ± 0.005 mPa·s, the viscosity (313.15 K, 101 kPa, x1 = 0.6022) was 0.411 ± 0.004 mPa·s and the viscosity (313.15 K, 101 kPa, x1 = 0.7037) was 0.375 ± 0.004 mPa·s. The viscosity (313.15 K, 101 kPa, x1 = 0.7973) was 0.346 ± 0.004 mPa·s, the viscosity (313.15 K, 101 kPa, x1 = 0.8988) was 0.341 ± 0.004 mPa·s and the viscosity (313.15 K, 101 kPa, x1 = 0.9458) was 0.332 ± 0.004 mPa·s.
